Experimental data as given in PubChem BioAssay AID330 (DTP/NCI, 2004).
Several values for one entry are separate records, joined by “and”; a condition that tells them apart may be missing. Identical values can stand only once. Inconclusive results and toxic doses are left out. Rule for the calls: active = survival T/C of 150% or more; inactive = T/C below 125% in these data.

Tested on: P388 leukemia ip, CD2F1 mice, survival T/C
Experiment: NCI In Vivo Anticancer Drug Screen. Data for tumor model P388 Leukemia (intraperitoneal) in CD2F1 (CDF1) mice
Conditions: endpoint: median survival time, higher = longer survival
In short: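 Mice carrying the transplanted tumor received test compound or vehicle. Survival was recorded in each group, and the value is the treated-group measurement divided by that of the vehicle-treated control group.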

[1] = dose: 100.0 mg/kg/injection, schedule: Q01DX001 (ip), vehicle: saline with Tween-80
[2] = dose: 200.0 mg/kg/injection, schedule: Q01DX001 (ip), vehicle: saline with Tween-80
[3] = dose: 400.0 mg/kg/injection, schedule: Q01DX001 (ip), vehicle: saline with Tween-80
[4] = dose: 60.0 mg/kg/injection, schedule: Q01DX005 (ip), vehicle: Klucel + Tween-80
[5] = dose: 50.0 mg/kg/injection, schedule: Q01DX009 (ip), vehicle: Klucel (hydroxypropylcellulose) (HPC)
[6] = dose: 100.0 mg/kg/injection, schedule: Q01DX009 (ip), vehicle: Klucel (hydroxypropylcellulose) (HPC)
[7] = dose: 50.0 mg/kg/injection, schedule: Q01DX005 (ip), vehicle: saline with Tween-80
[8] = dose: 100.0 mg/kg/injection, schedule: Q01DX005 (ip), vehicle: saline with Tween-80
[9] = dose: 200.0 mg/kg/injection, schedule: Q01DX005 (ip), vehicle: saline with Tween-80

Measured: T/C

Cc1cc2nc(C(C)(C)F)c(=O)[nH]c2cc1C
inactive: [1] 102 % of control | [2] 94 % of control | [3] 96 % of control

O=C(O)CCC(=O)C1=CSC(=C2SC=CS2)S1
inactive: [4] 106 % of control

NCC[Se][Se]CCN
inactive: dose: 1.56 mg/kg/injection, schedule: Q01DX009 (ip), vehicle: saline 98 % of control | dose: 3.12 mg/kg/injection, schedule: Q01DX009 (ip), vehicle: saline 98 % of control | dose: 6.25 mg/kg/injection, schedule: Q01DX009 (ip), vehicle: saline 104 % of control

CNC(=O)OCc1ccc(NCCN(C)C)c2c(=O)c3cc(OC(=O)NC)ccc3oc12
inactive: dose: 3.13 mg/kg/injection, schedule: Q01DX005 (ip), vehicle: Klucel (hydroxypropylcellulose) (HPC) 118 % of control | dose: 6.25 mg/kg/injection, schedule: Q01DX005 (ip), vehicle: Klucel (hydroxypropylcellulose) (HPC) 123 % of control

CCOC(=O)c1nc(C)[nH]c(=O)c1C
inactive: dose: 8.0 mg/kg/injection, schedule: Q01DX009 (ip), vehicle: water 100 % of control | dose: 16.0 mg/kg/injection, schedule: Q01DX009 (ip), vehicle: water 95 % of control | dose: 32.0 mg/kg/injection, schedule: Q01DX009 (ip), vehicle: water 100 % of control | dose: 64.0 mg/kg/injection, schedule: Q01DX009 (ip), vehicle: water 100 % of control | dose: 128.0 mg/kg/injection, schedule: Q01DX009 (ip), vehicle: water 98 % of control

O=c1[nH]c(C(Br)(Br)Br)nc2ccccc12
inactive: dose: 12.5 mg/kg/injection, schedule: Q01DX009 (ip), vehicle: Klucel (hydroxypropylcellulose) (HPC) 99 % of control | dose: 25.0 mg/kg/injection, schedule: Q01DX009 (ip), vehicle: Klucel (hydroxypropylcellulose) (HPC) 112 % of control | [5] 113 % of control | [6] 117 % of control

O=C(O)C1(Cc2ccc(O)cc2)NCCS1 (stereo not drawn)
inactive: dose: 100.0 mg/kg/injection, schedule: Q04DX002 (ip), vehicle: Klucel (hydroxypropylcellulose) (HPC) 104 % of control | dose: 200.0 mg/kg/injection, schedule: Q04DX002 (ip), vehicle: Klucel (hydroxypropylcellulose) (HPC) 104 % of control

N#Cc1c2c(c(=O)n3c1[nH]c1ccccc13)CCCC2
inactive: dose: 60.0 mg/kg/injection, schedule: Q01DX005 (ip), vehicle: saline with Tween-80 93 % of control | dose: 120.0 mg/kg/injection, schedule: Q01DX005 (ip), vehicle: saline with Tween-80 94 % of control | dose: 240.0 mg/kg/injection, schedule: Q01DX005 (ip), vehicle: saline with Tween-80 90 % of control

COCN1C(=O)N2C(c3ccccc3)(c3ccccc3)C(C(=O)OC)=C(C(=O)OC)P12(c1ccccc1)c1ccccc1
inactive: dose: 15.0 mg/kg/injection, schedule: Q01DX005 (ip), vehicle: Klucel (hydroxypropylcellulose) (HPC) 107 % of control | dose: 30.0 mg/kg/injection, schedule: Q01DX005 (ip), vehicle: Klucel (hydroxypropylcellulose) (HPC) 99 % of control | dose: 60.0 mg/kg/injection, schedule: Q01DX005 (ip), vehicle: Klucel (hydroxypropylcellulose) (HPC) 91 % of control and 97 % of control | dose: 240.0 mg/kg/injection, schedule: Q01DX005 (ip), vehicle: Klucel (hydroxypropylcellulose) (HPC) 87 % of control

COC(=O)c1cc(C=C(C)C)[nH]c(=O)c1C#N
inactive: dose: 30.0 mg/kg/injection, schedule: Q01DX005 (ip), vehicle: saline 99 % of control | dose: 60.0 mg/kg/injection, schedule: Q01DX005 (ip), vehicle: saline 100 % of control and 107 % of control | dose: 120.0 mg/kg/injection, schedule: Q01DX005 (ip), vehicle: saline 107 % of control

Nc1ccc(N=Nc2ccc3cc4ccc(N=Nc5ccc(N)nc5N)cc4nc3c2)c(N)n1
inactive: dose: 6.25 mg/kg/injection, schedule: Q01DX005 (ip), vehicle: saline with Tween-80 92 % of control | dose: 12.5 mg/kg/injection, schedule: Q01DX005 (ip), vehicle: saline with Tween-80 100 % of control and 106 % of control | dose: 25.0 mg/kg/injection, schedule: Q01DX005 (ip), vehicle: saline with Tween-80 100 % of control and 116 % of control | [7] 95 % of control | [8] 106 % of control | [9] 109 % of control

COc1cc2ccc(/C=C\[N+](=O)[O-])cc2cc1OC
inactive: dose: 3.13 mg/kg/injection, schedule: Q01DX009 (ip), vehicle: other 105 % of control | dose: 6.25 mg/kg/injection, schedule: Q01DX009 (ip), vehicle: other 108 % of control | dose: 12.5 mg/kg/injection, schedule: Q01DX009 (ip), vehicle: other 107 % of control | dose: 25.0 mg/kg/injection, schedule: Q01DX009 (ip), vehicle: other 108 % of control

BrC1=CC(Br)=C2N=C(N3CCCC3)N=C3N=C(N4CCCC4)N=C1N32
inactive: dose: 3.75 mg/kg/injection, schedule: Q01DX005 (ip), vehicle: Klucel + Tween-80 97 % of control | dose: 7.5 mg/kg/injection, schedule: Q01DX005 (ip), vehicle: Klucel + Tween-80 97 % of control | dose: 15.0 mg/kg/injection, schedule: Q01DX005 (ip), vehicle: Klucel + Tween-80 89 % of control and 90 % of control | [4] 86 % of control

CC(=O)Nc1c(Cl)nc2cc(N(C)C)ccc2c1Cl
inactive: [4] 97 % of control | dose: 120.0 mg/kg/injection, schedule: Q01DX005 (ip), vehicle: Klucel + Tween-80 96 % of control | dose: 240.0 mg/kg/injection, schedule: Q01DX005 (ip), vehicle: Klucel + Tween-80 97 % of control

NNC1=Nc2cc3c(cc2C(=O)N2C[C@H](O)CC12)OCO3 (stereo partly drawn)
inactive: [1] 100 % of control | [2] 100 % of control | [3] 99 % of control

COc1cc(OC)c2c(=O)c3cccc([N+](=O)[O-])c3n(C)c2c1
inactive: [1] 104 % of control | [2] 100 % of control | [3] 98 % of control

COC(=O)C1=C/C=C\CN(/C=C/c2ccccc2)/C=C\1C(=O)OC
inactive: dose: 100.0 mg/kg/injection, schedule: Q04DX003 (ip), vehicle: alcohol 97 % of control | dose: 200.0 mg/kg/injection, schedule: Q04DX003 (ip), vehicle: alcohol 112 % of control | dose: 400.0 mg/kg/injection, schedule: Q04DX003 (ip), vehicle: alcohol 94 % of control

O=c1n(-c2ccccc2)c(=O)n2n1C1C=CC2C2C3OC3C21 (stereo not drawn)
inactive: dose: 12.5 mg/kg/injection, schedule: Q04DX003 (ip), vehicle: Klucel (hydroxypropylcellulose) (HPC) 100 % of control | dose: 25.0 mg/kg/injection, schedule: Q04DX003 (ip), vehicle: Klucel (hydroxypropylcellulose) (HPC) 101 % of control | dose: 50.0 mg/kg/injection, schedule: Q04DX003 (ip), vehicle: Klucel (hydroxypropylcellulose) (HPC) 108 % of control

COC1CCC(COS(=O)(=O)c2ccc(C)cc2)O1 (stereo not drawn)
inactive: dose: 50.0 mg/kg/injection, schedule: Q01DX009 (ip), vehicle: saline with Tween-80 105 % of control | dose: 100.0 mg/kg/injection, schedule: Q01DX009 (ip), vehicle: saline with Tween-80 100 % of control | dose: 200.0 mg/kg/injection, schedule: Q01DX009 (ip), vehicle: saline with Tween-80 103 % of control

C=C1C(=O)OC2/C=C(/C)C3OC3/C=C(/C(=O)OC)C(OC(C)=O)C(OC(=O)C3(C)OC3C)C12 (stereo not drawn)
inactive: dose: 1.5 mg/kg/injection, schedule: Q01DX009 (ip), vehicle: Klucel (hydroxypropylcellulose) (HPC) 124 % of control | dose: 12.0 mg/kg/injection, schedule: Q01DX009 (ip), vehicle: Klucel (hydroxypropylcellulose) (HPC) 86 % of control

FC(F)(F)c1ccccc1N=Cc1ccc(C=Nc2ccccc2C(F)(F)F)cc1
inactive: [5] 98 % of control | [6] 91 % of control

CCn1c(=O)c(C(C)=O)cc2c(=O)c3c(ccc4ccccc43)oc21
inactive: [7] 104 % of control | [8] 93 % of control | [9] 91 % of control

O=C(O)CCC1NC(=O)NC1=O (stereo not drawn)
inactive: dose: 50.0 mg/kg/injection, schedule: Q01DX001 (ip), vehicle: saline 100 % of control | dose: 100.0 mg/kg/injection, schedule: Q01DX001 (ip), vehicle: saline 103 % of control | dose: 200.0 mg/kg/injection, schedule: Q01DX001 (ip), vehicle: saline 104 % of control | dose: 400.0 mg/kg/injection, schedule: Q01DX001 (ip), vehicle: saline 94 % of control

OCCNCCNCC[OH2+].OCCNCCNCC[OH2+].[Ni+2].[O-][Cl+3]([O-])([O-])[O-]
inactive: dose: 12.5 mg/kg/injection, schedule: Q01DX009 (ip), vehicle: saline 100 % of control | dose: 25.0 mg/kg/injection, schedule: Q01DX009 (ip), vehicle: saline 98 % of control

O=C(CCl)NC1(C(=O)O)CCCC1
inactive: [5] 94 % of control | [6] 90 % of control | dose: 200.0 mg/kg/injection, schedule: Q01DX009 (ip), vehicle: Klucel (hydroxypropylcellulose) (HPC) 97 % of control
